Experimental data published in patent publication US11173167B2, “Nutritional intervention for improving muscular function and strength” (Metabolic Technologies, Inc., priority 2008, dated 2021).

Tests used:
[1] = 12-week HMB / Vitamin D study, muscular performance index; type: in vivo, human; details: eight week performance index, older adults
Text: (§1) Prior to the start of the experimental period, we randomly assigned nutritional supplements to each subject using computer-generated random numbers in a double-blind fashion. Treatments were arranged in a 2×2 factorial design with two levels of HMB (0 & 3.0 g/d) and two levels of Vitamin D (0 & 2,000 IU/d). We assigned subjects to one of the following four treatments:
Functionality tests included: “Get-up-and-Go” performance (speed and gate), and “Get-up” performance. The “Get-up-and-Go” test consisted of timed measurements of the subject's starting from a seated position, standing, walking forward 3 meters, turning around, walking back to the chair, and sitting down. […] The complete descriptions and standardization of the tests are outlined in the Physical Dimensions of Aging by Waneen W. Spirduso (Human Kinetics, 1995).
A muscular performance index was calculated by summing the percentage change from baseline for Get-up-and-Go, Get-up, handgrip, peak torque for knee extension and flexion (60, 90 and 120°/sec) and peak torque for elbow extension and flexion (60°/sec).
(§2) Least Squares Mean±SEM were calculated strength and functionality changes in each variable over the 12-week period. […] Statistical significance was determined for p<0.05 and a trend was determined for 0.05<p<0.10.

[2] = system: Mouse C2C12 skeletal muscle cell myoblasts fused into myotubes; test: Protein degradation and synthesis by leucine isotope release/disappearance in C2C12 myotubes with dexamethasone; type: cell-based; details: 24 h, dexamethasone 100 nM
Description: Mouse C2C12 skeletal muscle cell myoblasts were grown in culture under standard conditions and fused into myotubes following the methods of Menconi et al. (95). Four separate studies were conducted during different weeks. The first 3 studies consisted of 4 replicate dishes per treatment and the fourth study consisted of 6 replicate dishes per treatment. The treatments were applied to the cells during the 24 h measurement period. Treatments applied were control, 25OH-VitD3 (200 ng/mL), HMB (200 μM HMB as Ca(HMB)2, and the combination of HMB and 25OH-VitD3. Dexamethasone (100 nM) was added to the culture medium during the treatment/measurement period to stimulate protein degradation. Calcium in the form of calcium chloride was added to the control and 25OH-VitD3 treatments so that all the treatments were balanced for calcium. For measurement of protein degradation during the treatment period, leucine free medium was obtained to which [5,5,5]^2H3-leucine was added so that the isotopes of leucine (natural leucine and [1-^13C]-leucine) could be measured as they were released into the medium through the protein degradation process. The measurement medium was sampled at 2 and 24 h and samples stored at −80° C. until analyzed. The samples were analyzed for leucine using a gas chromatography (model 6890, Hewlett Packard, Palo, Calif.) mass spectrometry (model 5973, Hewlett Packard, Palo, Calif.) and the gas chromatography column used for the analysis was a Zebron ZB-5. (Phenomenex, Torrence, Calif.). Natural leucine, [1-^13C]-leucine, and [5,5,5^2H3]-leucine were monitored at 302, 303, and 305 AMU, respectively. Corrections for sampling at 2 h and for leucine utilization from the measurement media were made. […] Concentrations of proteins were analyzed following the microplate assay instructions using a Pierce BCA protein assay kit (Thermo Scientific, Rockford, Ill.). DNA was measured flourometrically using the Quant-iT™ dsDNA assay kit from Invitrogen (Carlsbad, Calif.). […]

[3] = 12-week HMB / Vitamin D study, knee extension strength (BIODEX peak torque); type: in vivo, human; details: older adults, 8 weeks
Text: as §1
The exercise testing and training session was supervised by trained research associates. Resting heart rate and blood pressure measurements were obtained prior to strength measurements. Enrolled individuals participated in an exercise training program consisting of strength training exercises with Theraband® stretch cords (resistance training) and jumping. The equipment consisted of items that can easily be used at home. Exercise sessions were 3 times a week for 12 weeks. Each exercise session was about 45-60 minutes. […]
Body composition measurements were obtained at 0, 4, 8, and 12 weeks. […] Handgrip strength was measured using a handgrip dynamometer. Peak torque for knee extension and flexion was measured at 60, 90 and 120°/sec. Peak torque for elbow extension and flexion was measured at 60 and 120°/sec.
as §2

[4] = 12-week 2x2 HMB / Vitamin D study in older adults with exercise training, serum 25OH-VitD3; type: in vivo, human; details: control or HMB alone, no Vitamin D supplement
Text: Elderly women (n=30) and men (n=16) were recruited into a double-blinded controlled study. The older adults were recruited from two locations in South Dakota: Brookings and Sioux Falls. The subjects underwent an initial screening and were randomized to treatments. Testing consisted of an initial (0 weeks) and follow-up testing at 4, 8 and 12 weeks over the course of the 12-week study.
as §1
The treatments were supplied in capsules of equal size and color and contained equal amounts of calcium and phosphorus. The subjects were instructed to take three capsules two times a day. Each subject was supplied with a one-week supply of the supplement, allocated by subject number and returned each week for an additional 1-week supply. […]
as §2

[5] = 12-week HMB / Vitamin D study, urinary HMB concentration (supplement compliance); type: in vivo, human; details: clean catch urine sample, HMB 3.0 g/day
Description: The average 25OH-VitD3 concentration at wk 0 was 26.5 ng/ml. […] However, subjects either supplemented with a control or HMB alone decreased their serum 25OH-VitD3 level by 2.0 ng/mL. A clean catch urine sample was used to test for supplement compliance.

[6] = after HMB is fed; cited from earlier work
[7] = target: T1, 1-alpha, 25-Vitamin D hydroxylase (Homo sapiens, UniProt O15528); details: human vascular smooth muscle; cited from earlier work
T1 sequence (O15528 1-508): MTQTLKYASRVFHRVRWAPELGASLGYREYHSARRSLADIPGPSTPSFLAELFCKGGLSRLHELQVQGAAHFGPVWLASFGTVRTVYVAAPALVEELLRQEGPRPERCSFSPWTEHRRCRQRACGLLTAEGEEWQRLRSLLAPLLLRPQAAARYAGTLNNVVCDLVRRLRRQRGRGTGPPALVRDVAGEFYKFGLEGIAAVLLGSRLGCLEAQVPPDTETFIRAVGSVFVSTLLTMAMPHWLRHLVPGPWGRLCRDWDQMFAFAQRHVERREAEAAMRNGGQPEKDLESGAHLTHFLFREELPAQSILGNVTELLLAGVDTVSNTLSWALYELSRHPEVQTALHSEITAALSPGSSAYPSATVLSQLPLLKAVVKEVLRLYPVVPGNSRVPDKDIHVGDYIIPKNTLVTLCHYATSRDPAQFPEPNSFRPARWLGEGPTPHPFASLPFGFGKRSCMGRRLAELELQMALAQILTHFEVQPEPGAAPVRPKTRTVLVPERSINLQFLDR

C=C1CC[C@H](O)C/C1=C/C=C1\CCC[C@]2(C)[C@@H]([C@H](C)CCCC(C)C)CC[C@@H]12 [Vitamin D, cholecalciferol]
increase in the performance index over the control [1]: 58% | dexamethasone stimulated protein degradation [2]: tended to decrease dexamethasone stimulated protein degradation in only the faster turnover protein pool | knee extension strength compared to control-treated subjects [3]: Neither the HMB alone nor the Vitamin D-treated subjects increased knee extension strength

β-hydroxy-β-methylbutyrate [HMB]
increase in the performance index over the control [1]: 35% | decrease in serum 25OH-VitD3 level [4]: 2.0 ng/mL | increase in urinary HMB concentration [5]: 50 fold | loss of HMB to urine [6]: 20-50% | decrease in protein degradation measured by [1-13C]-leucine ([2]; HMB 200 μM): 6.3% | decrease in protein degradation measured by natural leucine ([2]; HMB 200 μM): 7.6% | knee extension strength compared to control-treated subjects [3]: Neither the HMB alone nor the Vitamin D-treated subjects increased knee extension strength

C=C1CC[C@H](O)C/C1=C/C=C1\CCC[C@]2(C)[C@@H]([C@H](C)CCCC(C)(C)O)CC[C@@H]12 [25OH-VitD3]
Km [7]: 25 ng/mL
